Our source for the IC50 values is patent publication US20130029967A1, “Fused Imidazo [3,2 - D] Pyrazines as P13 Kinase Inhibitors” (Centro Nacional de Investigaciones Oncologicas (CNIO), priority 2009, published 2013).

Assay [1] deals with T1, PI3K (p110α/p85α) (Homo sapiens, UniProt P42336).
T1 construct: purchased Carna Biosciences 07CBS-0402A
The experiment in a line: PI3K activity assay (ADP Hunter Plus). The assay is classed as biochemical. The settings on record: quantitative results, read-out: PI3K α IC50. As to the method:
The kinase activity was measured by using the commercial ADP Hunter™ Plus assay available from DiscoveRx (#33-016), which is a homogeneous assay to measure the accumulation of ADP, a universal product of kinase activity. […] Reaction was carried out for 1 hour at 25° C. Reagent A and B were sequentially added to the wells and plates were incubated for 30 min at 37° C. […] Values were normalized against the control activity included for each enzyme (i.e., 100% PI3 kinase activity, without compound). These values were plot against the inhibitor concentration and were fit to a sigmoid dose-response curve by using the Graphed software.

Assay [2] has as its system phospho-Ser-473-Akt. The experiment in a line: AKT phosphorylation inhibition, Western blot analysis. The assay is classed as cell-based. The conditions noted are these: cellular p-AKT. As to the method: Cell culture: The cell lines were obtained from the American Type Culture Collection (ATCC). U2OS (human osteosarcoma) was cultured in Dulbecco's modified Eagle's medium (DMEM). PC3 (human prostate carcinoma), MCF7 (human breast cardinoma), HCT116 (human colon carcinoma), […], U251 (human glyoblastoma) were grown in RPMI. All media were supplemented with 10% fetal bovine serum (FBS) (Sigma) and antibiotics-antimycotics. Cell were maintained in a humidified incubator at 37° C. with 5% CO2 and passaged when confluent using trypsin/EDTA.
AKT phosphorylation Inhibition Western Blot Analysis: Subconfluent cells were incubated under different conditions and washed twice with TBS prior to lysis. Lysis buffer was added containing 50 mM Tris HCl, 150 mM NaCl, 1% NP-40, 2 mM Na3VO4, 100 mM NaF, 20 mM Na4P2O7 and protease inhibitor cocktail (Roche Molecular Biochemicals). The proteins were resolved on 10% SDS-PAGE and transferred to nitrocellulose membrane (Schleicher & Schuell, Dassel, Germany). The membranes were incubated overnight at 4° C. with antibodies specific for Akt, phospho-Ser-473-Akt (Cell Signaling Technology) and α-tubulin (Sigma), they were washed and then incubated with IRDye800 conjugated anti-mouse and Alexa Fluor 680 goat anti-rabbit IgG secondary antibodies. The bands were visualized using an Odyssey infrared imaging system (Li-Cor Biosciences).

Where two headings read alike, the source gives them in different places.

T1 sequence (P42336 whole entry): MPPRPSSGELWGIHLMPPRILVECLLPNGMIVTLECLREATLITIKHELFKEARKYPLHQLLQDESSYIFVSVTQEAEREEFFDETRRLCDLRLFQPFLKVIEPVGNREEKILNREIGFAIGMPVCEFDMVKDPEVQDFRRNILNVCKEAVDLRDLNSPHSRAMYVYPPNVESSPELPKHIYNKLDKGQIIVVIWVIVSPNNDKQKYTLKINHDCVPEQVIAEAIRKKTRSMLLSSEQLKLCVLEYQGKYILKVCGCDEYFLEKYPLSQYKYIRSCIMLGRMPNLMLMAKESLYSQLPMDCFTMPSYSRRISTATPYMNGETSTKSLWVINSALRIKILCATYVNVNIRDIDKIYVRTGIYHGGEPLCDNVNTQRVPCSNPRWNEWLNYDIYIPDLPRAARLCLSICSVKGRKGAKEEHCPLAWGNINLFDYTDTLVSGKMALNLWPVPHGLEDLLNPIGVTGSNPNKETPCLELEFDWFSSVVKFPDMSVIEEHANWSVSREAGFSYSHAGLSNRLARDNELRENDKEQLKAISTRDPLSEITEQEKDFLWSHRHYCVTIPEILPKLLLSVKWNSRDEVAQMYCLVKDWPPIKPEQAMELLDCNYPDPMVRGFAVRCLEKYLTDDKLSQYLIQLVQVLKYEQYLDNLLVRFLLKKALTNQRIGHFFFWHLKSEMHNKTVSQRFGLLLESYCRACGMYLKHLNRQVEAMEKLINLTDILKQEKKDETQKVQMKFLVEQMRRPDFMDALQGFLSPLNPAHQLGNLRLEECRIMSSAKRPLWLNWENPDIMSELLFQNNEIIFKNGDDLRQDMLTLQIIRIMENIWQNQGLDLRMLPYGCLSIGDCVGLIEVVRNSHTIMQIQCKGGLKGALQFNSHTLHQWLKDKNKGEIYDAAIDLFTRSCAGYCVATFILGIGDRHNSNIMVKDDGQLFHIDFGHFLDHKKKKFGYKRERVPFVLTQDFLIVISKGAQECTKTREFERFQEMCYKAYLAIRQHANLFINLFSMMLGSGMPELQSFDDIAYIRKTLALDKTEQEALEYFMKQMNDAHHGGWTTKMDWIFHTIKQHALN
T1 sequence (P27986 whole entry partner): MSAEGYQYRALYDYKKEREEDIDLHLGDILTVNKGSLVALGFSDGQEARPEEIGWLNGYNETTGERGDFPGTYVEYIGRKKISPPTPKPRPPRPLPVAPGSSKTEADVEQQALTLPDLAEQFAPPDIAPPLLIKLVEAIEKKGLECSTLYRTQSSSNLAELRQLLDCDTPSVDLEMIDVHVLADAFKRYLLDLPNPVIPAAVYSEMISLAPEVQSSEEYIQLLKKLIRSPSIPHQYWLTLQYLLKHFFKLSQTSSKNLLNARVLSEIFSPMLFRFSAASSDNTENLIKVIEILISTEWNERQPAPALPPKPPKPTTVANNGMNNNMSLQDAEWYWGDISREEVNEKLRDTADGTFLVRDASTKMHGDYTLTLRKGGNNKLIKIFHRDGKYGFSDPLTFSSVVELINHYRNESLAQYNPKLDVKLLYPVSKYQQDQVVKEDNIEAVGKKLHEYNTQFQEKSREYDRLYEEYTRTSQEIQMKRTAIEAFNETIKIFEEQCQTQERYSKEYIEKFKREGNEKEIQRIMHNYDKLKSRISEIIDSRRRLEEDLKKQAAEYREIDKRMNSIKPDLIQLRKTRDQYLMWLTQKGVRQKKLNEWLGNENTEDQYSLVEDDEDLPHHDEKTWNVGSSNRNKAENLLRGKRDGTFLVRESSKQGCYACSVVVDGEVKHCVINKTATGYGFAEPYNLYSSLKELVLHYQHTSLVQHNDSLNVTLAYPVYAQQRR

For `c1cc(-c2cn3c4c(nc3c(N3CCOCC3)n2)CCNC4)c2cn[nH]c2c1` [2-04], the IC50 in assay [1] (PI3Kα) came out at 755 nM; in assay [2], 56 nM.

As for `Nc1ncc(-c2cn3c4c(nc3c(N3CCOCC3)n2)CCN(Cc2ccccn2)C4)cn1` [2-18], the IC50 came out at 69 nM in assay [1] (PI3Kα) and 245 nM in assay [2].

In the case of `CCOC(=O)N1CCc2nc3c(N4CCOCC4)nc(-c4cnc(N)nc4)c(Cl)n3c2C1` [2-32], the IC50 in assay [1] (PI3Kα) came out at 84 nM; in assay [2] it was 78 nM.

As for `COc1ccc(CN2CCc3c(nc4c(N5CCOCC5)nc(-c5cnc(N)nc5)cn34)C2=O)cc1` [5-06], the IC50 amounted to 45 nM in assay [1] and 174 nM in assay [2].

As to `CN1CCc2c(nc3c(N4CCOCC4)nc(-c4cnc(N)nc4)cn23)C1` [6-02], the IC50 in assay [1] came to 88 nM; in assay [2], 318 nM.

Regarding `COCCN1CCc2c(nc3c(N4CCOCC4)nc(-c4cnc(N)nc4)cn23)C1` [6-03], the figures for the IC50 in assay [1] and in assay [2] were 50 nM and 532 nM, respectively.

Consider `COCCN1CCc2c(nc3c(N4CCOCC4)nc(-c4cnc(N)nc4)c(Cl)n23)C1` [6-09], for which the IC50 is 121 nM in assay [1] and 180 nM in assay [2].
